Source: patent publication US12667098B2, “Ready to use plant treatment agent applicator, container and product” (UPL Corporation Limited, priority 2022, dated 2026)

Tests used:
Type in all cases: in vivo
Conditions in all cases: 3 L/ha of glufosinate ammonium 18.5%
Field horsetail = assay: Weed control efficacy of glufosinate applied with the applicator: field horsetail
Description: (§1) The rate of application was 3 L/ha of glufosinate ammonium 18.5%.

Barnyard grass = assay: Weed control efficacy of glufosinate applied with the applicator: barnyard grass
Description: as §1

Broadleaf dock = assay: Weed control efficacy of glufosinate applied with the applicator: broadleaf dock
Description: as §1

Crabgrass = assay: Weed control efficacy of glufosinate applied with the applicator: crabgrass
Description: as §1

Water foxtail = assay: Weed control efficacy of glufosinate applied with the applicator: water foxtail
Description: as §1

[1] = 0.36% applied at 15 ml/m^2, applicator of the disclosure
[2] = 0.56% applied at 10 ml/m^2, applicator of the disclosure

In the case of `CP(=O)(O)CCC(N)C(=O)O` (racemic) [glufosinate, glufosinate ammonium], the “Control %: Max weed efficacy” value (Field horsetail; [1]) is reported as 76%, the “Control %: Max weed efficacy” value (Field horsetail; [2]) is reported as 73% and the “Control %: Max weed efficacy” value (Barnyard grass; [1]) is reported as 59%. The “Control %: Max weed efficacy” value (Barnyard grass; [2]) was 55%, the “Control %: Max weed efficacy” value (Broadleaf dock; [1]) was 92% and the “Control %: Max weed efficacy” value (Broadleaf dock; [2]) was 99%. The “Control %: Max weed efficacy” value (Crabgrass; [1]) was 82%, the “Control %: Max weed efficacy” value (Crabgrass; [2]) was 81% and the “Control %: Max weed efficacy” value (Water foxtail; [1]) was 96%. For the same compound, the “Control %: Max weed efficacy” value (Water foxtail; [2]) was 92%.
